According to patent publication US12460245B2, “Luciferase sequences utilizing infrared-emitting substrates to produce enhanced luminescence” (Promega Corporation, priority 2014, dated 2025):

Experiments:
cells = assay: Cell toxicity studies; format: cell-based; settings: compared to D-luciferin
[1] = Km in live cell (remark in Example 13); format: cell-based; settings: enzyme not stated
CBR [2] = assay: Km titration in live HEK293T cells; format: cell-based, click beetle; settings: 60 min at 37° C.
Description: HEK293T cells were plated at 15,000 cells/well into wells of 96-well white assay plates and grown overnight. A transfection mixture was made containing 13 μg of CBR DNA and 40 μL FuGENE® HD in a total volume of 620 μL OptiMEM. The mixture was incubated at room temperature for 10 min. The cells were then transfected, in triplicate, with 5 μL of transfection complex and grown overnight. […] The growth media from the transfected cells was removed and replaced with one of the 3× serial diluted substrate containing media. The cells were incubated 60 min at 37° C., and the cells were imaged on a ImageQuant CCD imager (FIG. 22).

CBR [3] = assay: Km titration in live HeLa cells; format: cell-based, click beetle; settings: 60 min at 37° C.
Description: HeLa cells were plated at 20,000 cells/well into wells of 96-well white assay plates and grown overnight. A transfection mixture was made containing 13 μg of CBR DNA and 40 μL FuGENE® HD in a total volume of 620 μL OptiMEM. The mixture was incubated at room temperature for 10 min. The cells were then transfected, in triplicate, with 5 μL of transfection complex and grown overnight. […] The growth media from the transfected cells was removed and replaced with one of the 3× serial diluted substrate containing media. The cells were incubated for 60 min at 37° C. Luminescence was detected on a GloMax®-Multi+luminometer (FIG. 21A and FIG. 21B).

[4] = target: T1, QuantiLum® luciferase (firefly) (Photinus pyralis, UniProt P08659); assay: Spectral scan of near-IR substrates with purified enzyme; format: biochemical; settings: substrate 1 mM in Bright-Glo Assay buffer + 1 mM ATP
T1 construct: purchased Promega E1701
Description: Materials: The following were used in the Examples: Ultra-Glo™ Luciferase (Promega Cat. No. E140); QuantiLum® Recombinant Luciferase (Promega Cat. No. E1701); Click Beetle Red Luciferase (CBR; 0.5 mg/mL purified; Promega); Bright-Glo™ assay buffer (Promega Cat. No. E264A); PBI-4739 (Promega—See FIG. 1); and PBI-4813 (Promega—See FIG. 1).
Experimental Details. The substrates, PBI-4813 and PBI-4739, were diluted to 1 mM (final concentration) in Bright-Glo™ Assay buffer+1 mM ATP. 50 μL of substrate solution was added to 50 μL of Click Beetle Red, UltraGlo® or QuantiLum® purified enzyme (0.5 mg/mL diluted in DMEM+0.1% Prionex) in triplicate, and then the samples assayed using a Tecan M-1000 plate reader in spectral scan mode.
FIG. 2 provides the spectral data for Click Beetle Red Luciferase with PBI-4813 (A) and PBI-4739 (B), where the spectral maximum was 655 nm for PBI-4813 and 760 nm for PBI-4739. FIG. 3 provides the spectral data for UltraGlo® luciferase with PBI-4813 (A) and PBI-4739 (B), where the spectral maximum was 670 nm for PBI-4813 and 660 nm for PBI-4739. FIG. 4 provides the spectral data for QuantiLum® luciferase (firefly) with PBI-4813 (A) and PBI-4739 (B), where the spectral maximum was 680 nm for PBI-4813 and equal to or greater than 700 nm for PBI-4739.

[5] = tested on: Click Beetle Red (CBR) mutant(s); assay: Light emission from Click Beetle Red mutant(s) with the red-shifted substrates; format: biochemical; settings: PBI-4813 compared with PBI-4739
[6] = Substrate inhibition of luciferase activity at high substrate concentration; format: biochemical
ATG 1240 = assay: Mimicry of tissue attenuation using long pass filters, transfected HEK293T cells; format: cell-based, click beetle; settings: HEK293T cells expressing ATG 1240; long pass filters
Description: A transfection complex was prepared by diluting ATG 1240 DNA or Luc2 DNA (pF4Ag-Luc2) to 100 ng/μL, and then 2× serial dilutions prepared in 50 ng/μL pGEM carrier DNA. 40 μL of the diluted DNA was the mixed with 160 μL phenol red free OptiMEM and 16 μL of FuGENE® HD and incubated for 20 min. 5 μL of each transfection complex was added to wells of a 96-well black assay plates and then 100 μL of diluted HEK293T cells (200,000/mL in DMEM+10% FBS) was added. The cells were grown overnight at 37° C. with CO2.
To assay the cells, 4 mM D-luciferin, 2 mM PBI-4813 and 2 mM PBI-4739 substrate solutions were prepared in DMEM+10% FBS. 100 μL of the D-luciferin solution was added to cells expressing Luc2 and ATG 1240, and 100 μL of PBI-4813 or PBI-4739 solution was added to ATG 1240 expressing cells. Samples were incubated for 10 min at 37° C., and luminescence detected on GloMax® Discover (heated to 37° C.) with no filter, 610 nm Long Pass (LP) filter, 665 nm LP filter, 695 nm LP filter, 720 nm LP filter or 760 nm LP filter.

CBR [7] = assay: Km titration in HEK293 cell lysates; format: biochemical, click beetle
Description: (§1) Some of the variants identified in Examples 2 and 3 were screened for their performance in mammalian cells. DNA was prepared by Plasmid.com. HEK293 and HeLa cells were plated into wells of a 24-well plate at 0.05×10^6 cells/mL and grown overnight at 37° C. with CO2. 2.2 μg variant DNA was mixed with 80 μL OptiMEM and 6.6 μL FuGENE® HD transfection reagent (Promega Corporation) and incubated at room temperature for 5 min. 25 μL of the DNA mixture was added to each well. After overnight incubation, the media was removed from the cells and 1 mL DPBS (Life Technologies) was added. […] Luminescence of the variants was normalized to the average of two CBR samples (FIG. 6 and FIG. 7). C. Km Titration. Cell lysates of ATG 1230 and ATG 1240 expressed in HEK293 cells were prepared as described in Example 4. The cell lysates were then diluted 1:10 in 0.3×PLB+0.1% Prionex. Dilutions (2×) of each substrate (PBI-4813 or PBI-4739) were prepared in Bright-Glo™ Assay buffer containing 1 mM ATP. 50 μL of diluted cell lysate was assayed with 50 μL of each substrate assay solution. Luminescence was detected on the GloMax® Discover (FIG. 12). […] Because the enzyme concentration is not known for the lysates of for live cell titrations, Vmax as expressed as a velocity is not possible. Instead, the relative Vmax calculates the maximum brightness for each lysate with different substrates.

ATG1240 = assay: Km titration in HEK293 cell lysates; format: biochemical, click beetle
Description: as §1

[8] = Solubility of the substrates; format: physicochemical; settings: PBI-4739 compared with PBI-4813
CBR [9] = assay: Luminescence of CBR using Aka Lumine, PBI-4739 and PBI-4813; format: biochemical, click beetle; settings: FIG. 19A
Description: (§2) FIG. 19A and FIG. 19B illustrate the luminescence of CBR using Aka Lumine, PBI-4739 and PBI-4813 (FIG. 19A) and the spectral scan of QuantiLum® Recombinant Luciferase using Aka Lumine as substrate (FIG. 19B).

[10] = target: T2, QuantiLum® Recombinant Luciferase (Photinus pyralis, UniProt P08659); assay: Spectral scan using Aka Lumine as substrate; format: biochemical; settings: FIG. 19B
T2 construct: purchased Promega E1701
Description: as §2

T1 sequence (P08659 whole entry): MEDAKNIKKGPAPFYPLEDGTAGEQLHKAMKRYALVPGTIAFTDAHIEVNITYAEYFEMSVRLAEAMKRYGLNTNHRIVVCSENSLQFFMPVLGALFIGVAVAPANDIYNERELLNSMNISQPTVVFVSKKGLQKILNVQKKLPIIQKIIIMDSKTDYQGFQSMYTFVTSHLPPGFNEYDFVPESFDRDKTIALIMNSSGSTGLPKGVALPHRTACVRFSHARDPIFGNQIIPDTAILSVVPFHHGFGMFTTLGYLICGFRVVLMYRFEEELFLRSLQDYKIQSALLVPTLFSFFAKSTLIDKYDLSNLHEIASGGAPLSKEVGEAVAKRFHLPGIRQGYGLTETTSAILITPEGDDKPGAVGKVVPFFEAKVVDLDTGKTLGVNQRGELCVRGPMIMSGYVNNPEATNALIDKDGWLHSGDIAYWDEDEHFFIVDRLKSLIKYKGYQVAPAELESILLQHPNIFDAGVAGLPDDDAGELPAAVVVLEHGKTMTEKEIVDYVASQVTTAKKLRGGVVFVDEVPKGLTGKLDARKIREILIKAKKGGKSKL
T2 sequence (P08659 whole entry): as above

| Compound | cell toxicity (cells) | Km less than for D-luciferin in live cell [1] | Km for CBR, lower relative to D-luciferin (CBR [2]) | Km for CBR in live cells, lower than the Km for D-luciferin (CBR [3]) | spectral maximum with QuantiLum® luciferase (firefly) [4] [nm] | brightness of light emission [5] | substrate inhibition by the substrate [6] | luminescence of ATG 1240 at the greatest light attenuation (ATG 1240) | Km with CBR in the lysates, lower than CBR with D-luciferin (CBR [7]) | Km with ATG1240, lower than CBR with D-luciferin (ATG1240) | solubility [8] | brightness (CBR [9]) | emission wavelength (less red) [10] [nm] |
| --- | --- | --- | --- | --- | --- | --- | --- | --- | --- | --- | --- | --- | --- |
| Nc1ccc2c(ccc3nc(C4=NC(C(=O)O)CS4)sc32)c1 (stereo not shown) [PBI-4813] | comparable non-toxicity to D-luciferin | more than 10 times | about 23 times | about 20 times | 680 | brighter | possible substrate inhibition | comparable | about 30 × | about 5 × |  |  |  |
| O=C(O)C1CSC(c2nc3ccc4cc(O)ccc4c3s2)=N1 (stereo not shown) [PBI-4739] | comparable non-toxicity to D-luciferin |  | about 5 times |  | ≥ 700 |  |  |  |  |  | less soluble |  |  |
| CN(C)c1ccc(/C=C/C=C/C2=N[C@@H](C(=O)O)CS2)cc1 [Aka Lumine] |  |  |  |  |  |  |  |  |  |  |  | dimmer | 675 |
